Source: patent US8119159B2, “Solid oral dosage form containing an enhancer” (Merrion Research III Limited, priority 1999, dated 2012)

Experiments:
[1] = in vivo
Protocol: Beagle dogs (10-15 Kg) were sedated with medetomidine (80 μg/kg) and an endoscope was inserted via the mouth, esophagus and stomach into the duodenum. The test solutions (10 ml), comprising leuprolide acetate (Mallinckrodt Inc, St. Louis, Mo.) with or without enhancer reconstituted in deionized water were administered intraduodenally via the endoscope. Following removal of the endoscope, sedation was reversed using atipamezole (400 μg/kg). The parenteral reference solutions comprising 1 mg Leuprolide reconstituted in 0.5 ml sterile water were administered intravenously and subcutaneously respectively.

[2] = test system: Caco-2 monolayers; assay: TEER of Caco-2 monolayers with MCFA sodium salts and 3H-TRH; assay type: cell-based; details: Caco-2 monolayers over 2 hours, sodium salts with 3H-TRH, concentrations of Table 1
Protocol: (§1) Cell Culture: Caco-2 cells were cultured in Dulbecco's Modified Eagles Medium (DMEM) 4.5 g/L glucose supplemented with 1% (v/v) non-essential amino acids; 10% fetal calf serum and 1% penicillin/streptomycin. […] The cells were grown and expanded in standard tissue culture flasks and were passaged once they attained 100% confluence. The Caco-2 cells were then seeded on polycarbonate filter inserts (Costar; 12 mm diameter, 0.4 μm pore size) at a density of 5×10^5 cells/cm^2 and incubated in six well culture plates with a medium change every second day. Confluent monolayers between day 20 and day 30 seeding on filters and at passages 30-40 were used throughout these studies.
(§2) Transepithelial Transport Studies: The effects of sodium salts of various MCFAs on the transport of ^3H-TRH (apical to basolateral flux) was examined as follows: 15.0 μCi/ml (0.2 μM) ^3H-TRH was added apically at time zero for TRH flux experiments. The transport experiments were performed in Hank's Balanced Salt Solution (HBSS) containing 25 mM N-[2-hydroxyethyl]-piperazine-N′-[2-ethanesulfonic acid] (HEPES) buffer, pH 7.4 at 37° C. Due to variations in solubilities, various concentrations of the different MCFA sodium salts and various apical buffers were used as shown in Table 1. In all cases the basolateral chamber contained regular HBSS+HEPES.
(§3) After removing the cell culture medium, the monolayers were placed in wells containing prewarmed HBSS (37° C.); 1 ml apically and 2 ml basolaterally. Monolayers were incubated at 37° C. for 30 mins. Then at time zero, apical HBSS was replaced with the relevant apical test solution containing the radiolabelled compounds with and without the enhancer compound. […] The plates were placed on an orbital shaker in an incubator (37° C.). Transport across the monolayers was followed by basolateral sampling (1 ml) at 30 min. intervals up to 120 mins. At each 30 min. interval each insert was transferred to a new well containing 2 ml fresh prewarmed HBSS. Apical stock radioactivity was determined by taking 10 μl samples at t=0 and t=120 mins. […] Mean values for ^3H-TRH concentrations were calculated for the apical and basolateral solutions at each time point.

[3] = test system: Caco-2 monolayers; assay: 3H-TRH apical to basolateral transport (Papp) across Caco-2 monolayers; assay type: in vitro ADME; details: sodium salts at the concentrations of Table 1
Protocol: as §1, §2
as §3, with “At each 30 min. interval each insert was transferred to a new well containing 2 ml fresh prewarmed HBSS.” left out

[4] = Closed loop rat model, intraduodenal TRH with enhancer, serum TRH; assay type: in vivo; details: interduodenal bolus 500 or 1000 μg TRH with 35 mg enhancer
Protocol: Male Wistar rats (weight range 250 g-350 g) were anaesthetized with ketamine hydrochloride/acepromazine. […] All intraduodenal dose volumes (for samples and control) were 1 ml/kg. The proximal end of the segment was ligated and the loop was sprayed with isotonic saline (37° C.) to provide moisture and then replaced in the abdominal cavity avoiding distension. The incision was closed with surgical clips. A group of animals were administered TRH in PBS (100 μg in 0.2 ml) by subcutaneous injection as a reference.

[5] = Closed-loop rat segment, intraileal USP heparin with enhancer, APTT response; assay type: in vivo; details: USP heparin 1000 iu, sodium caprate 10 and 35 mg
Source text: APTT measurements were taken at various time points.

[6] = test system: plasma anti-factor Xa activity; assay: Closed-loop rat segment, intraileal USP heparin with enhancer, plasma anti-factor Xa; details: USP heparin 1000 iu
Protocol: The procedure carried out in Example 1 (a) above was repeated using USP heparin in place of TRH and dosing intraileally rather than intraduodenally. A mid-line incision was made in the abdomen and the distal end of the ileum located (about 10 cm proximal to the ileo-caecal junction). 7-9 cm of tissue was isolated and the distal end ligated, taking care to avoid damage to surrounding blood vessels. Heparin absorption as indicated by […] (APTT) response was measured by placing a drop of whole blood (freshly sampled from the tail artery) on the test cartridge of Biotrack 512 coagulation monitor. APTT measurements were taken at various time points.
Citrated blood samples were centrifuged at 3000 rpm for 15 mins. to obtain plasma for anti-factor Xa analysis. […] The control in each case is a solution of the same heparin concentration containing no enhancer.

[7] = test system: plasma anti-factor Xa activity; assay: Dog study of oral heparin/enhancer tablets, anti-factor Xa and clinical assessment; assay type: in vivo; details: dogs, IR formulations, equivalent dose of heparin
Protocol: Tablets from batches 3, 7 and 15 in Tables 5 and 6 above were dosed orally to groups of five dogs in a single dose crossover study. […] Blood samples for anti-factor Xa analysis were collected from the jugular vein at various time points.

[8] = oral conventional forms, cited from earlier work
[9] = test system: plasma anti-factor Xa activity; assay: Intraduodenal LMWH with enhancers in rats (open loop), plasma anti-factor Xa; assay type: in vivo, rat; details: intraduodenal 1000 IU, absence of enhancer

## CCNC(=O)[C@@H]1CCCN1C(=O)[C@H](CCCNC(=N)N)NC(=O)[C@H](CC(C)C)NC(=O)[C@@H](CC(C)C)NC(=O)[C@H](Cc1ccc(O)cc1)NC(=O)[C@H](CO)NC(=O)[C@H](Cc1c[nH]c2ccccc12)NC(=O)[C@H](Cc1c[nH]cn1)NC(=O)[C@@H]1CCC(=O)N1 [leuprolide, leuprolide acetate]
[1]
  bioavailability: 8%
[1]; dog, in vivo
  systemic delivery of leuprolide: negligible

## CCCCCCCCCC(=O)[O-].[Na+] [Batch C10, sodium caprate]
[2]
  effect on TEER compared to the control: minimal reduction in TEER
[3]
  effect on permeability constant Papp for 3H-TRH compared to the control: considerable increases
[4]
  serum levels of TRH over the control TRH solution: significantly increases
[5]
  heparin absorption by APTT response vs control heparin solution: significant increase in absorption
[6]; enhancer 10 mg dose
  anti-factor Xa activity relative to control heparin solution: significant increase
[6]; enhancer 35 mg dose
  anti-factor Xa activity relative to control heparin solution: significant increase
[7]
  anti-factor Xa response, NaC10 relative to NaC8 enhancer: larger anti-factor Xa response

## CCCCCCCC(=O)[O-].[Na+] [Batch C8, sodium caprylate]
[4]
  serum levels of TRH over the control TRH solution: significantly increases

## CCCCCCCCCCCCCC(=O)[O-].[Na+] [Batch C14]
[2]
  effect on TEER compared to the control: minimal reduction in TEER
[3]
  effect on permeability constant Papp for 3H-TRH compared to the control: considerable increases

## NCCCC(O)(P(=O)(O)O)P(=O)(O)O [alendronate]
[8]; over the next 64 hours
  further share of the dose absorbed excreted in the urine: 5%
[8]; within 8 hours
  share of the dose absorbed excreted in the urine: 40%

## CCCCCCCCCCCC(=O)[O-].[Na+] [Batch C12, sodium laurate]
[2]
  effect on TEER compared to the control: some cell damage (reduction in TEER)
[3]
  effect on permeability constant Papp for 3H-TRH compared to the control: considerable increases

## parnaparin sodium [LMWH]
[9]
  systemic delivery of LMWH: relatively poor

## CCCCCCCCCCCCCCCCCC(=O)[O-].[Na+] [Batch C18]
[2]
  effect on TEER compared to the control: minimal reduction in TEER
